Reference: patent US20230413824A1, “AGROCHEMICAL COMPOSITION COMPRISING 3-SUBSTITUTED PHENYLAMIDINE COMPOUNDS AND USE THEREOF” (PI INDUSTRIES LIMITED, priority 2020, published 2023)
Read-outs that look alike come from different tables or passages of the source.

Tests used:
Type in all cases: in vivo
Septoria nodorum = assay: Parastagonospora nodorum/Septoria nodorum/Stagnospora nodorum test in wheat (preventive, glasshouse); settings: single compound
Protocol: The single compounds or compound combinations were dissolved in 2% DMSO/Acetone and then mixed with water containing emulsifier to a calibrated spray volume of 50 mL. The spray solutions were poured into spray bottles for further applications.
To test the preventive activity of compounds, healthy young wheat plants, raised in the greenhouse, were sprayed with the single compound or mixture preparation at the stated application rates inside the spray cabinets using hollow cone nozzles. One day after treatment, the plants were inoculated with a suspension containing 2.8×10^6 Stagnospora nodorum inoculum. The inoculated plants were then kept in a greenhouse chamber at 22-25° C. temperature and 90-100% relative humidity for disease expression.
A visual assessment of the performance of the compounds and respective compound combinations was carried out by rating the disease severity (0-100% scale) on treated plants 3, 7 and 10 days after application. Efficacy (% control) of the compounds was calculated by comparing the disease rating in the treatment with the one of the untreated control. The compounds were also assessed for their plant compatibility by recording symptoms like necrosis, chlorosis & stunting. The results are shown for the compound of formula (I-1) to (I-5) in Table E1-E5.

Alternaria solani = Alternaria solani test in tomato (preventive, glasshouse)
Phakopsora pachyrhizi = Phakopsora pachyrhizi test in soybean (preventive, glasshouse); settings: single compound
Botrytis cinerea = Botrytis cinerea test in tomato (preventive, glasshouse); settings: single compound
Pyricularia oryzae = assay: whole plant or invertebrate; settings: Pyricularia oryzae, read-out: Observed Efficacy
Erysiphe cichoracearum = Erysiphe cichoracearum test in cucumber (preventive, glasshouse); settings: single compound
[1] = Table B3, single compound, Conc. 0.05 ppm, preventive
[2] = Table B3, single compound, Conc. 0.1 ppm, preventive
[3] = single compound, 0.05 ppm, preventive
[4] = single compound, 0.1 ppm, preventive
[5] = Conc. 0.1 ppm, soybean, preventive, Table D4

With `Cn1cc(C(=O)Nc2ccc(F)cc2-c2ccc(Cl)c(Cl)c2)c(C(F)F)n1` [Bixafen, bixafen] the “Observed Efficacy (%)” value (Septoria nodorum; 0.05 ppm) was 18%, the “Observed Efficacy (%)” value (Septoria nodorum; 0.1 ppm) was 29% and the “Observed Efficacy (%)” value (Alternaria solani; [1]) was 11%. For the same compound, the “Observed Efficacy (%)” value (Alternaria solani; [2]) was 29%, the “Observed Efficacy (%)” value (Alternaria solani; Table B4, single compound, Conc. 0.05 ppm, preventive) was 11% and the “Observed Efficacy (%)” value (Alternaria solani; Table B4, single compound, Conc. 0.1 ppm, preventive) was 29%. The “Observed Efficacy (%)” value (Alternaria solani; [3]) was 11%, the “Observed Efficacy (%)” value (Alternaria solani; single compound, 0.05 ppm, preventive spray) was 11% and the “Observed Efficacy (%)” value (Alternaria solani; [4]) was 29%. For the same compound, the “Observed Efficacy (%)” value (Alternaria solani; single compound, 0.1 ppm, preventive spray) was 29%, the “Observed Efficacy” value (Alternaria solani; single compound, Conc. 0.05 ppm, preventive spray) was 11% and the “Observed Efficacy” value (Alternaria solani; single compound, Conc. 0.1 ppm, preventive spray) was 29%. For the same compound, the “Observed Efficacy (%)” value (Phakopsora pachyrhizi; 0.05 ppm, preventive spray on soybean) was 15%, the “Observed Efficacy (%)” value (Phakopsora pachyrhizi; 0.1 ppm, preventive spray on soybean) was 22% and the “Observed Efficacy (%)” value (Phakopsora pachyrhizi; Conc. 0.05 ppm, soybean, preventive, Table D4) was 15%. For the same compound, the “Observed Efficacy (%)” value (Phakopsora pachyrhizi; [5]) was 22% and the “Observed Efficacy (%)” value (Botrytis cinerea; Conc. 0.1 ppm, preventive spray on tomato, % control vs untreated) was 48%.

`O=C(Nc1ccccc1-c1ccc(Cl)cc1)c1cccnc1Cl` [Boscalid, boscalid] showed a pest or weed control at 0.05 ppm (Alternaria solani; Alternaria solani, single compound, 0.05 ppm, preventive spray, read-out: Observed Efficacy (%)) of 13%, a pest or weed control at 0.1 ppm (Alternaria solani; Alternaria solani, single compound, 0.1 ppm, preventive spray, read-out: Observed Efficacy (%)) of 26% and a pest or weed control at 0.05 ppm (Alternaria solani; Alternaria solani, single compound, Conc. 0.05 ppm, preventive spray, read-out: Observed Efficacy) of 13%. For the same compound, the pest or weed control at 0.1 ppm (Alternaria solani; Alternaria solani, single compound, Conc. 0.1 ppm, preventive spray, read-out: Observed Efficacy) was 26%, the “Observed Efficacy (%)” value (Alternaria solani; [1]) was 13% and the “Observed Efficacy (%)” value (Alternaria solani; [2]) was 26%. The “Observed Efficacy (%)” value (Alternaria solani; [3]) was 13%, the “Observed Efficacy (%)” value (Alternaria solani; [4]) was 26% and the pest or weed control at 0.1 ppm (Phakopsora pachyrhizi; Phakopsora pachyrhizi, 0.1 ppm, preventive spray on soybean, read-out: Observed Efficacy (%)) was 32%. For the same compound, the “Observed Efficacy (%)” value (Phakopsora pachyrhizi; [5]) was 32%, the pest or weed control at 0.05 ppm (Pyricularia oryzae) was 24% and the pest or weed control at 0.1 ppm (Pyricularia oryzae) was 37%. For the same compound, the pest or weed control at 0.05 ppm (Botrytis cinerea; Botrytis cinerea, Conc. 0.05 ppm, preventive spray on tomato, % control vs untreated, read-out: Observed Efficacy (%)) was 38%, the “Observed Efficacy (%)” value (Botrytis cinerea; Table F4, Conc. 0.05 ppm, Botrytis cinerea in tomato, preventive) was 38% and the pest or weed control at 0.1 ppm (Botrytis cinerea; Table F4, Conc. 0.1 ppm, Botrytis cinerea in tomato, preventive, read-out: Observed Efficacy (%)) was 52%. For the same compound, the pest or weed control at 0.05 ppm (Erysiphe cichoracearum; Golovinomyces cichoracearum, 0.05 ppm, cucumber, preventive, read-out: Observed Efficacy (%)) was 24%, the pest or weed control at 0.1 ppm (Erysiphe cichoracearum; Golovinomyces cichoracearum, 0.1 ppm, cucumber, preventive, read-out: Observed Efficacy (%)) was 32% and the “Observed Efficacy (%)” value (Erysiphe cichoracearum; 0.05 ppm, preventive spray on cucumber) was 24%. For the same compound, the “Observed Efficacy (%)” value (Erysiphe cichoracearum; 0.1 ppm, preventive spray on cucumber) was 32%.

In the case of `CCN(C)C=Nc1cc(C)cc(Cc2ccccc2C)c1C` [Compound (I-3), N′-(2,5-dimethyl-3-(2-methylbenzyl)phenyl)-N-ethyl-N-methylformimidamide], the pest or weed control at 1 ppm (Septoria nodorum; Parastagonospora nodorum, 1 ppm, read-out: Observed Efficacy (%)) is reported as 13%, the pest or weed control at 5 ppm (Septoria nodorum; Parastagonospora nodorum, 5 ppm, read-out: Observed Efficacy (%)) is reported as 27% and the pest or weed control at 20 ppm (Septoria nodorum; Parastagonospora nodorum, 20 ppm, read-out: Observed Efficacy (%)) is reported as 40%. It also gave a pest or weed control at 1 ppm (Alternaria solani; Alternaria solani, Table B3, single compound, Conc. 1 ppm, preventive, read-out: Observed Efficacy (%)) of 17%, a pest or weed control at 5 ppm (Alternaria solani; Alternaria solani, Table B3, single compound, Conc. 5 ppm, preventive, read-out: Observed Efficacy (%)) of 23% and a pest or weed control at 20 ppm (Alternaria solani; Alternaria solani, Table B3, single compound, Conc. 20 ppm, preventive, read-out: Observed Efficacy (%)) of 43%. It also gave a pest or weed control at 0.0001 ppm (Phakopsora pachyrhizi; Phakopsora pachyrhizi, 0.0001 ppm, preventive spray on soybean, read-out: Observed Efficacy (%)) of 47%, a pest or weed control at 0.001 ppm (Phakopsora pachyrhizi; Phakopsora pachyrhizi, 0.001 ppm, preventive spray on soybean, read-out: Observed Efficacy (%)) of 53% and a pest or weed control at 0.01 ppm (Phakopsora pachyrhizi; Phakopsora pachyrhizi, 0.01 ppm, preventive spray on soybean, read-out: Observed Efficacy (%)) of 65%. The pest or weed control at 1 ppm (Botrytis cinerea; Botrytis cinerea, Conc. 1 ppm, preventive spray on tomato, % control vs untreated, read-out: Observed Efficacy (%)) was 57%, the pest or weed control at 5 ppm (Botrytis cinerea; Botrytis cinerea, Conc. 5 ppm, preventive spray on tomato, % control vs untreated, read-out: Observed Efficacy (%)) was 67% and the pest or weed control at 20 ppm (Botrytis cinerea; Botrytis cinerea, Conc. 20 ppm, preventive spray on tomato, % control vs untreated, read-out: Observed Efficacy (%)) was 77%. The pest or weed control at 1 ppm (Erysiphe cichoracearum; Golovinomyces cichoracearum, 1 ppm, preventive spray on cucumber, read-out: Observed Efficacy (%)) was 17%, the pest or weed control at 5 ppm (Erysiphe cichoracearum; Golovinomyces cichoracearum, 5 ppm, preventive spray on cucumber, read-out: Observed Efficacy (%)) was 27% and the pest or weed control at 20 ppm (Erysiphe cichoracearum; Golovinomyces cichoracearum, 20 ppm, preventive spray on cucumber, read-out: Observed Efficacy (%)) was 47%.
